According to ChEMBL document CHEMBL1138052, “Discovery and optimization of anthranilic acid sulfonamides as inhibitors of methionine aminopeptidase-2: a structural basis for the reduction of albumin binding” (J Med Chem, 2006):

Experiment: Protein binding in rat plasma
Format: ADME, organism-based
Conditions: read-out: PPB (converted)

| fraction unbound | Structure (SMILES) |
| --- | --- |
| 0.003 | Cc1ccc(NS(=O)(=O)c2ccccc2)c(C(=O)O)c1 |
| 0.002 | O=C(O)c1c(NS(=O)(=O)c2ccccc2)ccc2c1CCCC2 |
